# Test results taken from US20220178927A1, “BIOMARKERS FOR SELINEXOR” (Karyopharm Therapeutics Inc., priority 2019, published 2022).
# Legend:
# [1] = tested on: quad-refractory myeloma; details: pivotal phase 2 study; cited from earlier work
# [2] = tested on: refractory MM; details: expansion cohort (n=15) of the phase 1 monotherapy study; cited from earlier work
# [3] = tested on: bortezomib-refractory disease; details: cited from earlier work
# [4] = tested on: MM refractory to either 4 or 5 drugs (quad- and penta-refractory); assay: phase 2 STORM study Part 1; assay type: in vivo, human; details: Selinexor 80 mg in combination with dexamethasone 20 mg, 2 dosing schedules; quad- and penta-refractory MM patients
# Protocol: Selinexor 80 mg in combination with dexamethasone 20 mg administered using 2 dosing schedules was studied in patients with MM refractory to either 4 or 5 drugs (quad- and penta-refractory) in Part 1 of the phase 2 STORM (Selinexor Treatment Of Refractory Myeloma) study. Median overall response rate (ORR) was 21% in this heterogeneous population. Based on these findings, the activity of selinexor 80 mg administered twice-weekly was examined in a more uniform population in the pivotal STORM Part 2 study.
# [5] = tested on: penta-exposed, triple-class refractory MM; assay: pivotal STORM Part 2 study; assay type: in vivo
# From the text: Eligible patients had measurable MM by International Myeloma Working Group (IMWG) criteria (See, Durie B G, Harousseau J L, Miguel J S, et al. International uniform response criteria for multiple myeloma. Leukemia 2006;20:1467-73. Rajkumar S V, Harousseau J L, Durie B, et al. Consensus recommendations for the uniform reporting of clinical trials: report of the International Myeloma Workshop Consensus Panel. Blood 2011;117:4691-5); prior treatment with bortezomib, carfilzomib, lenalidomide, pomalidomide, daratumumab, glucocorticoids, and an alkylating agent; and had disease refractory to at least 1 IMiD (lenalidomide and pomalidomide), 1 PI (bortezomib or carfilzomib), daratumumab, glucocorticoids and to their last regimen. Refractory disease was defined as progression during or within 60 days after completion of therapy, or <25% response to therapy.19, 20 Eastern Cooperative Oncology Group performance status of 0-2, adequate hepatic function, renal function, and hematopoietic function were required. Systemic light chain amyloidosis, active central nervous system involvement, grade≥3 peripheral or grade≥2 painful neuropathy were exclusion criteria.
# Oral selinexor 80 mg in combination with dexamethasone 20 mg was administered on days 1 and 3, weekly, in 4-week cycles until disease progression, death or discontinuation. A dose modification protocol was used for adverse event (AE) management. All patients were required to receive ondansetron 8 mg (or equivalent) prior to the first dose of study drug and 2-3 times daily as needed. Other antiemetics (olanzapine, NK-1R antagonists) were permitted for patients intolerant to or with persistent nausea. Supportive measures were provided at the discretion of the investigator and may have included intravenous fluids, hematopoietic growth factors, transfusions, and/or appetite stimulants (olanzapine, megesterol acetate).
# The primary endpoint was Overall Response Rate (ORR) adjudicated by the appointed Independent Review Committee (IRC). Secondary endpoints included duration of response (DOR), clinical benefit rate (CBR), progression-free survival (PFS) and OS (Overall Survival). Disease-specific assessments were conducted at baseline, day 1 of each treatment cycle, and at the time of disease progression or suspected response. High-risk cytogenetics included del(17p), t(4;14), t(14;16), and gain(1q) chromosomal abnormalities by fluorescent in situ hybridization (FISH). Quality of life was assessed using the Functional Assessment of Cancer Therapy-Multiple Myeloma (FACT-MM) patient-reported outcome questionnaire. Safety and tolerability were assessed through history, physical exam, laboratory assessments and 12-lead electrocardiogram. Adverse events (AEs) were graded according to the NCI CTCAE v4.03.
# The sample size was based on assumptions for penta-exposed, triple-class-refractory MM using a minimal threshold for ORR of 10%. For the primary efficacy analysis, a sample size of 122 patients allowed for a one-sided test at α=0.025 to detect an ORR of ≥20% against the threshold ORR of 10% with 90% power. The modified intention-to-treat (mITT) population was used for the primary efficacy analysis, comprised of all enrolled patients who met all eligibility criteria or received a waiver from the Sponsor to enroll in the trial and received at least 1 dose of selinexor plus dexamethasone. The safety population included all patients who received at least 1 dose of study drug. The primary analysis used a 2-sided, exact 95% confidence interval, calculated for the ORR among the mITT population, with statistical significance declared if the lower bound of this interval was >10%. […] Summary statistics for continuous variables minimally included: n (number), mean, standard deviation (SD), minimum, median, and maximum. For categorical variables, frequencies and percentages are presented. For time-to-event variables, the Kaplan-Meier method was used for descriptive summaries.
# [6] = selinexor 80 mg + dexamethasone 20 mg twice weekly
# [7] = selinexor 80 mg + dexamethasone 20 mg twice weekly, % of mITT patients
# [8] = selinexor 80 mg + dexamethasone 20 mg twice weekly, % of patients
compound,measurement,setting,value
daratumumab,ORR,[1],21.2%
same,ORR,[2],36%
CC(C)C[C@H](NC(=O)[C@H](CCc1ccccc1)NC(=O)CN1CCOCC1)C(=O)N[C@@H](Cc1ccccc1)C(=O)N[C@@H](CC(C)C)C(=O)[C@@]1(C)CO1 [carfilzomib],ORR,[3],18.9%
"O=C(/C=C\n1cnc(-c2cc(C(F)(F)F)cc(C(F)(F)F)c2)n1)NNc1cnccn1 [selinexor, Selinexor]",Overall response rate (ORR),[4],21%
same,discontinuation because of AEs (unrelated and related),[5]; most common reasons for discontinuation,32.5%
same,Overall response rate (ORR),"[5]; oral selinexor 80 mg + dexamethasone 20 mg, days 1 and 3 weekly, mITT population (122 patients), IRC adjudicated",26.2%
same,"CBR (≥minimal response), clinical benefit rate",[5]; [6],39.3%
same,OS (Overall Survival),[5]; [6],8.6 months
same,PFS (progression-free survival),[5]; [6],3.7 months
same,median DOR (duration of response),[5]; [6],4.4 months
same,partial responses,[5]; [7],19.7%
same,stringent complete responses,[5]; [7],1.6%
same,very good partial responses,[5]; [7],4.9%
same,Minimal response,[5]; [8],13.1%
same,progressive disease or disease not evaluable,[5]; [8],21.3%
same,stable disease,[5]; [8],39.3%
same,response of patients with relapse after CAR-T,"[5]; selinexor 80 mg + dexamethasone 20 mg twice weekly, both (2) patients with prior CAR-T therapy",partial response
same,Median time to partial response or better,"[5]; selinexor 80 mg + dexamethasone 20 mg twice weekly, range 1-14 weeks",4.1 weeks
same,median OS in patients who achieved a partial or minimal response or better,"[5]; selinexor 80 mg + dexamethasone 20 mg twice weekly, responder subgroup",15.6 months
same,efficacy across subgroups,[5]; subgroups including patients with high-risk cytogenetics (53% of the patients),consistent across subgroups
